Consider one compound from US10220001B2, “Active self-healing biomaterial system” (The Regents of the University of Michigan, priority 2010, dated 2019).

This test deals with serum testosterone. Put plainly: Testosterone suppression in rats after injection of leuprolide acetate self-encapsulated PLGA microspheres. It counts as in vivo, male Sprague-Dawley rats. The following applies: for testosterone suppression: result in words. How it is done: Evaluation of testosterone suppression in rats following injection of leuprolide acetate self-encapsulated PLGA microspheres: The ability of PLGA self-healing microencapsulation to provide long-term in vivo release was evaluated by assessing long-term testosterone suppression after a single injection of leuprolide acetate self-encapsulated PLGA microspheres in male Sprague-Dawley rats (S5-S8). The treatment of experimental animals was in accordance with University committee on use and care of animals (University of Michigan UCUCA), and all NIH guidelines for the care and use of laboratory animals. Male Sprague-Dawley rats of 6 weeks old were housed in cages and given free access to standard laboratory food and water, and allowed one week to acclimate prior to study initiation. Animals were anesthetized with 2-4% isoflurane administered by a calibrated vaporizer (Midmark, Orchard Park, N.Y., USA). The leuprolide acetate self-encapsulated PLGA microspheres (1×2-month dose), leuprolide acetate solution (1×1-month dose), and blank SM PLGA microspheres without drug (1× dose) in a liquid vehicle (1% w/v carboxymethylcellulose and 2% w/v mannitol), and commercial 1-month Lupron Depot (Abbott Laboratories, North Chicago, Ill., USA) (2× dosing at days 0 and 28) were subcutaneously injected at the back (lower neck portion) of rats (6 animals/study group). […]
PLGA self-healing microencapsulation provides long-term delivery of bioactive large molecules in vivo—Long-term testosterone suppression in rats after single injection of leuprolide acetate self-encapsulated PLGA microspheres: Leuprolide acetate (Mw=1209.6 Da) is commonly used in the treatment of hormone-dependent cancers (e.g., prostate cancer) and gynecologic disorders (e.g., endometriosis and precocious puberty). […] The ability of PLGA self-healing microencapsulation to provide long-term in vivo release was evaluated by assessing long-term testosterone suppression in male Sprague-Dawley rats (six rats/study group) in comparison with commercial Lupron Depot™ and negative controls (FIG. 2C). […]

On to `CCNC(=O)[C@@H]1CCCN1C(=O)[C@H](CCCNC(=N)N)NC(=O)[C@H](CC(C)C)NC(=O)[C@@H](CC(C)C)NC(=O)[C@H](Cc1ccc(O)cc1)NC(=O)[C@H](CO)NC(=O)[C@H](Cc1c[nH]c2ccccc12)NC(=O)[C@H](Cc1c[nH]cn1)NC(=O)[C@@H]1CCC(=O)N1` [leuprolide solution, Leuprolide acetate], for which the testosterone suppression result is given as “failed to provide testosterone suppression below the castration level”. Further, under “one day after subcutaneous injection”, the serum testosterone level is about 5 ng/mL. For the same compound, the testosterone suppression entry (listed as solution leuprolide) is “ineffective to suppress testosterone”.
